Laboratory results: publication PMC10385664, “Projection of Target Drug Particle Size in Oral Formulations Using the Refined Developability Classification System (rDCS)” (Pharmaceutics, 2023)
Where “and” joins values, the source holds several entries; their conditions need not be identical. Equal entries are not always repeated.

Columns and labels:
[1] = Powder dissolution method for estimating IDR in FaSSIF V1; assay type: physicochemical; conditions: FaSSIF V1, 37 °C, 100 rpm
Method: Istradefylline disks could not be prepared because disk compression led to a change in solid state. The IDR of istradefylline was therefore measured (n = 4) according to a published powder dissolution method for estimating rotating disk IDRs. Istradefylline was weighed into an assay vial containing a magnetic crossbar stirrer, in an amount corresponding to approximately twice the amount needed to saturate the medium. The vials were placed in a heating block and 20 mL pre-heated FaSSIF V1 (37.0 ± 0.5 °C) was added to start the dissolution experiments. The medium was stirred at 100 rpm and concentrations were measured with in situ UV-spectroscopy using fiber optic dip probes until a plateau in the dissolution profile was reached. The vials were protected from light with aluminum foil during the entire experiment. […]
The concentration‐time curves for IDR determination were recorded with in situ UV‐spectroscopy using fiber optic dip probes. […] The buffer was stirred at 100 rpm and spectra were recorded approximately 1 minut e after addition of the stock solution. […]
Second derivatives of the UV spectra were used to establish the calibration curves. Multiple wavelength ranges were evaluated, and calibration curves were accepted for further investigation when linear […]

[2] = cited from earlier work

Compound | IDR FaSSIF V1 (powder dissolution method) [1] | solubility at pH 1.0 [2]
CCn1c(=O)c2c(nc(/C=C/c3ccc(OC)c(OC)c3)n2C)n(CC)c1=O [Istradefylline, istradefylline] | 0.302 ± 0.010 µg/min/cm^2 and 0.302 ± 0.010 ^3 µg/min/cm^2 | –
Cc1ncc(OC[C@@]2(c3cccc(F)c3)C[C@H]2C(=O)Nc2ccc(F)cn2)c(C)n1 [Lemborexant, lemborexant] | – | 1.6 mg/mL
